Results reported in patent US5498695A, “Paranitroaniline peptides” (Pfizer Inc., priority 1994, dated 1996).
Where a SMILES comes first, the peptide text is derived from it. Where no end group is shown, it is not given here. The star is where a group is joined. pNA = O=[N+]([O-])c1ccc(N*)cc1; Cbz = O=C(OCc1ccccc1)*; Boc = CC(C)(C)OC(=O)*

What was measured:
[1] = target: T1, interleukin 1β converting enzyme (ICE) (Homo sapiens, UniProt P29466); assay: Spectrophotometric hydrolysis of pNA substrates by immobilized ICE (release of pNA at 405 nM); format: biochemical; conditions: 25° C.; for Increase In Absorbence Rates (mOD/min), first value: first of two rate values printed; for Increase In Absorbence Rates (mOD/min), first value / Increase In Absorbence Rates (mOD/min), second value: pH 7, 405 nM, condition that separates the two values not given; for Vmax (Rates) mOD/min: pNA substrate 0.01 to 1.5 mM, pH 7; for Increase In Absorbence Rates (mOD/min), second value: second of two rate values
T1 construct: ICE activity was purified from THP-1 cell lysates by three chromatographic steps; endogenous in cells; host or cells: THP-1 (ATCC-TIB 202) human monocyte cell line; Lysate was purified over G25, Q-Sepharose and MonoQ, then captured on protein A agarose beads carrying anti-ICE antibody
T1 sequence (P29466 120-297 limits assumed): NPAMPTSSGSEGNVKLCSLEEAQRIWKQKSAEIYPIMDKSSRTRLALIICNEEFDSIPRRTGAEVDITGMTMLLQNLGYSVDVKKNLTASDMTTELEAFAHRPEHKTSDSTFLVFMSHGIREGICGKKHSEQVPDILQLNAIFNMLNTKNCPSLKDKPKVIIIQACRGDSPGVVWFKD
T1 sequence (P29466 317-404 limits assumed): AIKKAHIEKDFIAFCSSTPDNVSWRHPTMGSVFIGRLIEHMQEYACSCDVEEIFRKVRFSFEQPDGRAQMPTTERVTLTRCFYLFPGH
Method: (§1) Other procedures for purification and assaying ICE are disclosed in Black et al., FEBS Letters, 247, 386-390 (1989), and Thornberry et al., Nature, 356, 768-774 (1992). Cell Culture And Lysates.
(§2) Human monocyte cell line, THP-1 (ATCC-TIB 202) was grown in RPMI media 1640 (Gibco BRL Gaithersburg, Md. 20877) with 10% fetal bovine serum, harvested by centrifugation, washed twice in Dulbecco's PBS […] without Ca^++, and resuspended in 10 mM Tris-HCl pH 8 buffer containing 5 mM DTT (dithiothreitol), 1 mM EDTA (ethylene diamine tetraacetic acid), 1 mM PMSF (phenylmethyl sulfonylfluoride), 1 μg/ml pepstatin, and 1 μg/ml leupeptin at 1-3×10^8 cells per ml. Cells were frozen at -70° C. until use and then lysed by thawing. Lysates were cleared by centrifugation at 20,000× g for 1 hour followed by 120,000×g for 1 hour.
(§3) ICE activity was purified from THP-1 cell lysates by three chromatographic steps: (A) Thp-1 cell lysate (1.5L) was desalted by G25 column chromatography (Pharmacia LKB Biotechnology) (B) The protein fraction was then subjected to ion-exchange chromatography on Q-Sepharose Fast Flow (Pharmacia LKB Biotechnology) in buffer A (20 mM Tris pH 7.8 containing 5 mM EDTA, 1 mM PMSF, 1 μg/ml pepstatin, and 1 μg/ml leupeptin). ICE activity was eluted with a gradient of NaCl in buffer A. (C) The active fractions from B were desalted, concentrated and subjected to MonoQ (trademark) (Pharmacia LKB Biotechnology) column chromatography. ICE activity was then eluted in a NaCl gradient. Active ICE fractions from C were pooled and used to bind immunoaffinity beads containing covalently linked antibodies raised against the first […] N-terminal residues of ICE (NH2 -Asp-Pro-Ala-Met-Pro-Thr-Ser-Ser-Val-Lys-Leu-Cys(SEQ ID NO:2)-CONH2).
Immobilization of ICE to immunoaffinity beads was done following standard protocols. Briefly, IgG fractions were covalently linked to protein A beads as described by the manufacturers (Antibody Orientation Kit Protein A Agarose supplied by Affinica (trademark) (Product manufactured by Schleicher and Schuell)). Protein A beads were pelleted by centrifugation and washed with 5 times their volume with Affinica (trademark) supplied "binding buffer". IgG, appropriately diluted in "binding buffer," was then bound to the beads. The beads were then washed and the bound IgG was covalently linked with dimethyl suberimidate. After the reaction was stopped with the "quenching buffer" supplied by Affinica (trademark), the immunoaffinity beads were washed and stored in PBS buffer containing 0.02% NAN3. To bind the immunoaffinity beads with MonoQ purified ICE preparations, the beads were washed in 10 mM Tris HCL buffer pH 7.8 containing 5 mM DDT, 1 mM EDTA-NA, 1 ug/ml peptstatin, 1 ug/ml leupeptin and 10% glycerol ("washing buffer"). After the wash, the beads were mixed with ICE in the presence of 10% DMSO final concentration. The suspension was rotated slowly for 1 hour at room temperature. Subsequently, the beads were thoroughly washed with the "washing buffer" before they were used and resuspended in an equal volume of this buffer in the enzymatic assay.
The enzymatic reaction was carried out at 25° C. in 96 microtiter wells (100 μl final volume) with active enzyme immobilized to anti-ICE antibodies covalently linked to protein A beads as described above. The incubation mixtures for the enzymatic assays contained 0.01 to 1.5 mM of the pNA substrates and was made up in 8.35 mM MES, 4.17 mM Tris, 4.17 mM acetic acid, […] DMSO, 0.8 mM EDTA and 4.17 mM DTT (final concentrations)adjusted to a final pH of 7.
The enzymatic reaction was monitored spectrophotometrically at […]. The increase in absorbance at this wave length resulted from the release of pNA chromophore after hydrolysis by ICE of the peptidic-pNA substrate. The release of the chormophore was linear with reaction time and the rates observed were proportional to ICE and substrate concentration. […]

[2] = target: T1, interleukin 1β converting enzyme (ICE); assay: Inhibition of ICE hydrolysis of CBZ-Val-Ala-Asp-pNA; format: biochemical; conditions: for Ki: substrate CBZ-Val-Ala-Asp-pNA
Method: as §1, §2, §3
Immobilization of ICE to immunoaffinity beads was done following standard protocols. […]
The enzymatic reaction was monitored spectrophotometrically at […]. The increase in absorbance at this wave length resulted from the release of pNA chromophore after hydrolysis by ICE of the peptidic-pNA substrate. […]

type of inhibition ([2]; hydrolysis of CBZ-Val-Ala-Asp-pNA, affecting Km but not Vmax)	Ki [2]	Molecule	Increase In Absorbence Rates (mOD/min), first value [1]	Vmax (Rates) mOD/min [1]	Increase In Absorbence Rates (mOD/min), second value [1]
–	–	CC(C)[C@H](NC(=O)OCc1ccccc1)C(=O)N[C@@H](C)C(=O)N[C@@H](CC(=O)O)C(=O)Nc1ccc([N+](=O)[O-])cc1 [Example 6, CBZValAlaAsp-p-nitroanilide] (Cbz-Val-Ala-Asp-pNA)	0.18 mOD/min	0.21 mOD/min	0.16 mOD/min
–	–	CC(=O)N[C@@H](Cc1ccc(O)cc1)C(=O)N[C@H](C(=O)N[C@@H](C)C(=O)N[C@@H](CC(=O)O)C(=O)Nc1ccc([N+](=O)[O-])cc1)C(C)C [Example 1, Ac-TyrValAlaAsp (SEQ ID NO:1)-p-nitroanilide]	0.21 mOD/min	0.27 mOD/min	0.17 mOD/min
–	–	CC(=O)N[C@H](C(=O)N[C@@H](C)C(=O)N[C@@H](CC(=O)O)C(=O)Nc1ccc([N+](=O)[O-])cc1)C(C)C [Example 5, AcValAlaAsp-p-nitroanilide] (Ac-Val-Ala-Asp-pNA)	0.15 mOD/min	0.25 mOD/min	0.08 mOD/min
competitive inhibitors	1600 µM	Ac-YVHDA-NH2 [p48, Ac-Tyr-Val-His-Asp-Ala(SEQ ID NO:4)-NH2]	–	–	–
–	–	CC(C)[C@H](NC(=O)OC(C)(C)C)C(=O)N[C@@H](C)C(=O)N[C@@H](CC(=O)O)C(=O)Nc1ccc([N+](=O)[O-])cc1 [Example 4, t-BOCValAlaAsp-p-nitroanilide] (Boc-Val-Ala-Asp-pNA)	0.17 mOD/min	0.24 mOD/min	0.10 mOD/min
–	460 µM	H-NEAYVHDAPVRSLN [p70, H-Asn-Glu-Ala-Tyr-Val-His-Asp-Ala-Pro-Val-Arg-Ser-Leu-Asn]	–	–	–
